Source: patent US12077503B2, “Substituted cyclic amides and their use as herbicides” (FMC CORPORATION, priority 2015, dated 2024)

Key:
Assay type in all cases: in vivo
[1] = test system: Kochia (Kochia scoparia); assay: Test A preemergence; details: Preemergence; for Plant response rating, Kochia: 125 g ai/ha, visual injury after approximately 10 d, 0 to 100 scale where 0 is no effect and 100 is complete control; for Kochia plant response rating (0 to 100 scale, 0 is no effect, 100 is complete control): 500 g ai/ha, visual injury approx. 10 d
Procedure, shortened: (§1)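 Seeds sprayed preemergence with a directed soil spray, or plants at 2 to 10 cm height and one- to two-leaf stage sprayed postemergence, with test chemicals in a non-phytotoxic solvent mixture containing surfactant, in loam soil–sand blend. Injury rated visually against untreated controls after about 10 d in greenhouse, 0 (no effect) to 100 (complete control).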

[2] = test system: barnyardgrass (Echinochloa crus-galli); assay: Test A preemergence; details: Preemergence; for Plant response rating, Barnyardgrass: 125 g ai/ha, visual injury after approximately 10 d, 0 to 100 scale where 0 is no effect and 100 is complete control; for Barnyardgrass plant response rating (0 to 100 scale, 0 is no effect, 100 is complete control): 500 g ai/ha, visual injury approx. 10 d
Procedure, shortened: as §1

[3] = test system: giant foxtail (Setaria faberii); assay: Test A preemergence; details: Preemergence; for Plant response rating, Foxtail, Giant: 125 g ai/ha, visual injury after approximately 10 d, 0 to 100 scale where 0 is no effect and 100 is complete control; for Foxtail, Giant plant response rating (0 to 100 scale, 0 is no effect, 100 is complete control): 500 g ai/ha, visual injury approx. 10 d
Procedure, shortened: as §1

[4] = test system: pigweed (Amaranthus retroflexus); assay: Test A preemergence; details: Preemergence; for Plant response rating, Pigweed: 125 g ai/ha, visual injury after approximately 10 d, 0 to 100 scale where 0 is no effect and 100 is complete control; for Pigweed plant response rating (0 to 100 scale, 0 is no effect, 100 is complete control): 500 g ai/ha, visual injury approx. 10 d
[5] = test system: ragweed (common ragweed, Ambrosia elatior); assay: Test A preemergence; details: Preemergence; for Plant response rating, Ragweed: 125 g ai/ha, visual injury after approximately 10 d, 0 to 100 scale where 0 is no effect and 100 is complete control; for Ragweed plant response rating (0 to 100 scale, 0 is no effect, 100 is complete control): 500 g ai/ha, visual injury approx. 10 d
Procedure, shortened: as §1

[6] = test system: ryegrass, Italian (Italian ryegrass, Lolium multiflorum); assay: Test A preemergence; details: Preemergence; for Plant response rating, Ryegrass, Italian: 125 g ai/ha, visual injury after approximately 10 d, 0 to 100 scale where 0 is no effect and 100 is complete control; for Ryegrass, Italian plant response rating (0 to 100 scale, 0 is no effect, 100 is complete control): 500 g ai/ha, visual injury approx. 10 d
Procedure, shortened: as §1

[7] = test system: Galium (catchweed bedstraw, Galium aparine); assay: Test A postemergence; details: for Galium plant response rating: 125 g ai/ha, postemergence, visual injury rating on 0 to 100 scale (0 no effect, 100 complete control), approx. 10 d; for Plant response rating, Galium: Postemergence, 500 g ai/ha, 0 to 100 scale where 0 is no effect and 100 is complete control
Procedure, shortened: as §1

[8] = test system: Kochia (Kochia scoparia); assay: Test A postemergence; details: for Kochia plant response rating: 125 g ai/ha, postemergence, visual injury rating on 0 to 100 scale (0 no effect, 100 complete control), approx. 10 d; for Plant response rating, Kochia: Postemergence, 500 g ai/ha, 0 to 100 scale where 0 is no effect and 100 is complete control
Procedure, shortened: as §1

[9] = test system: barnyardgrass (Echinochloa crus-galli); assay: Test A postemergence; details: for Barnyardgrass plant response rating: 125 g ai/ha, postemergence, visual injury rating on 0 to 100 scale (0 no effect, 100 complete control), approx. 10 d; for Plant response rating, Barnyardgrass: Postemergence, 500 g ai/ha, 0 to 100 scale where 0 is no effect and 100 is complete control
Procedure, shortened: as §1

[10] = test system: blackgrass (Alopecurus myosuroides); assay: Test A postemergence; details: for Blackgrass plant response rating: 125 g ai/ha, postemergence, visual injury rating on 0 to 100 scale (0 no effect, 100 complete control), approx. 10 d; for Plant response rating, Blackgrass: Postemergence, 500 g ai/ha, 0 to 100 scale where 0 is no effect and 100 is complete control
Procedure, shortened: as §1

[11] = test system: corn (Zea mays); assay: Test A postemergence; details: for Corn plant response rating: 125 g ai/ha, postemergence, visual injury rating on 0 to 100 scale (0 no effect, 100 complete control), approx. 10 d; for Plant response rating, Corn: Postemergence, 500 g ai/ha, 0 to 100 scale where 0 is no effect and 100 is complete control
Procedure, shortened: as §1

[12] = test system: giant foxtail (Setaria faberii); assay: Test A postemergence; details: for Foxtail, Giant plant response rating: 125 g ai/ha, postemergence, visual injury rating on 0 to 100 scale (0 no effect, 100 complete control), approx. 10 d; for Plant response rating, Foxtail, Giant: Postemergence, 500 g ai/ha, 0 to 100 scale where 0 is no effect and 100 is complete control
Procedure, shortened: as §1

[13] = test system: pigweed (Amaranthus retroflexus); assay: Test A postemergence; details: for Pigweed plant response rating: 125 g ai/ha, postemergence, visual injury rating on 0 to 100 scale (0 no effect, 100 complete control), approx. 10 d; for Plant response rating, Pigweed: Postemergence, 500 g ai/ha, 0 to 100 scale where 0 is no effect and 100 is complete control
Procedure, shortened: as §1

[14] = test system: ragweed (common ragweed, Ambrosia elatior); assay: Test A postemergence; details: for Ragweed plant response rating: 125 g ai/ha, postemergence, visual injury rating on 0 to 100 scale (0 no effect, 100 complete control), approx. 10 d; for Plant response rating, Ragweed: Postemergence, 500 g ai/ha, 0 to 100 scale where 0 is no effect and 100 is complete control
Procedure, shortened: as §1

[15] = test system: ryegrass, Italian (Italian ryegrass, Lolium multiflorum); assay: Test A postemergence; details: for Ryegrass, Italian plant response rating: 125 g ai/ha, postemergence, visual injury rating on 0 to 100 scale (0 no effect, 100 complete control), approx. 10 d; for Plant response rating, Ryegrass, Italian: Postemergence, 500 g ai/ha, 0 to 100 scale where 0 is no effect and 100 is complete control
Procedure, shortened: as §1

[16] = test system: wheat (Triticum aestivum); assay: Test A postemergence; details: for Wheat plant response rating: 125 g ai/ha, postemergence, visual injury rating on 0 to 100 scale (0 no effect, 100 complete control), approx. 10 d; for Plant response rating, Wheat: Postemergence, 500 g ai/ha, 0 to 100 scale where 0 is no effect and 100 is complete control
Procedure, shortened: as §1

[17] = test system: barnyardgrass (Echinochloa crus-galli); assay: Test B flooded paddy test; details: Flood, 250 g ai/ha; 0 to 100 scale where 0 is no effect and 100 is complete control; 13 to 15 d
Procedure, shortened: (§2)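 Plants at 2-leaf stage flooded to 3 cm above soil, with compounds applied directly to paddy water and that depth maintained. Plants kept in greenhouse 13–15 d. Visual rating versus controls on a 0 (no effect) to 100 (complete control) scale.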

[18] = test system: ducksalad (Heteranthera limosa); assay: Test B flooded paddy test; details: Flood, 250 g ai/ha; 0 to 100 scale where 0 is no effect and 100 is complete control; 13 to 15 d
Procedure, shortened: as §2

[19] = test system: rice (Oryra sativa); assay: Test B flooded paddy test; details: Flood, 250 g ai/ha; 0 to 100 scale where 0 is no effect and 100 is complete control; 13 to 15 d
Procedure, shortened: as §2

[20] = test system: sedge, umbrella (small-flower umbrella sedge, Cyperus difformis); assay: Test B flooded paddy test; details: Flood, 250 g ai/ha; 0 to 100 scale where 0 is no effect and 100 is complete control; 13 to 15 d
Procedure, shortened: as §2

Structure (SMILES)	Plant response rating, Kochia [1]	Kochia plant response rating (0 to 100 scale, 0 is no effect, 100 is complete control) [1]	Plant response rating, Barnyardgrass [2]	Barnyardgrass plant response rating (0 to 100 scale, 0 is no effect, 100 is complete control) [2]	Plant response rating, Foxtail, Giant [3]	Foxtail, Giant plant response rating (0 to 100 scale, 0 is no effect, 100 is complete control) [3]	Plant response rating, Pigweed [4]	Pigweed plant response rating (0 to 100 scale, 0 is no effect, 100 is complete control) [4]	Plant response rating, Ragweed [5]	Ragweed plant response rating (0 to 100 scale, 0 is no effect, 100 is complete control) [5]	Plant response rating, Ryegrass, Italian [6]	Ryegrass, Italian plant response rating (0 to 100 scale, 0 is no effect, 100 is complete control) [6]	Galium plant response rating [7]	Plant response rating, Galium [7]	Kochia plant response rating [8]	Plant response rating, Kochia [8]	Barnyardgrass plant response rating [9]	Plant response rating, Barnyardgrass [9]	Blackgrass plant response rating [10]	Plant response rating, Blackgrass [10]	also measured
C=C(C)CN1CC(c2cccc(C(F)(F)F)c2)C(C(=O)Nc2ccccc2F)C1=O (stereo not drawn) [Compound 481]	0	0	0	10	50	90	0	0	0	0	0	0	0	0	0	0	0	20	0	0	Corn plant response rating [11]: 0; Plant response rating, Corn [11]: 0; Foxtail, Giant plant response rating [12]: 0; Plant response rating, Foxtail, Giant [12]: 20; Pigweed plant response rating [13]: 0; Plant response rating, Pigweed [13]: 0; Ragweed plant response rating [14]: 0; Plant response rating, Ragweed [14]: 0; Ryegrass, Italian plant response rating [15]: 0; Plant response rating, Ryegrass, Italian [15]: 0; Wheat plant response rating [16]: 0; Plant response rating, Wheat [16]: 20; Plant response rating, Barnyardgrass [17]: 0; Plant response rating, Ducksalad [18]: 0; Plant response rating, Rice [19]: 0; Plant response rating, Sedge, Umbrella [20]: 0
C=C(Cl)CN1CC(c2cccc(C(F)(F)F)c2)C(C(=O)Nc2ccccc2F)C1=O (stereo not drawn) [Compound 482]	0	0	0	10	70	80	0	0	0	0	0	0	0	0	0	0	0	20	0	0	Corn plant response rating [11]: 0; Plant response rating, Corn [11]: 0; Foxtail, Giant plant response rating [12]: 0; Plant response rating, Foxtail, Giant [12]: 20; Pigweed plant response rating [13]: 0; Plant response rating, Pigweed [13]: 0; Ragweed plant response rating [14]: 0; Plant response rating, Ragweed [14]: 0; Ryegrass, Italian plant response rating [15]: 0; Plant response rating, Ryegrass, Italian [15]: 0; Wheat plant response rating [16]: 0; Plant response rating, Wheat [16]: 0; Plant response rating, Barnyardgrass [17]: 0; Plant response rating, Ducksalad [18]: 0; Plant response rating, Rice [19]: 0; Plant response rating, Sedge, Umbrella [20]: 0
O=C(Nc1ccccc1F)C1C(=O)N(CC=CCl)CC1c1cccc(C(F)(F)F)c1 (stereo not drawn) [Compound 483]	0	0	0	70	70	90	0	0	0	0	0	30	0	0	0	20	20	60	0	0	Corn plant response rating [11]: 0; Plant response rating, Corn [11]: 0; Foxtail, Giant plant response rating [12]: 20; Plant response rating, Foxtail, Giant [12]: 70; Pigweed plant response rating [13]: 0; Plant response rating, Pigweed [13]: 0; Ragweed plant response rating [14]: 0; Plant response rating, Ragweed [14]: 0; Ryegrass, Italian plant response rating [15]: 0; Plant response rating, Ryegrass, Italian [15]: 0; Wheat plant response rating [16]: 0; Plant response rating, Wheat [16]: 0; Plant response rating, Barnyardgrass [17]: 0; Plant response rating, Ducksalad [18]: 30; Plant response rating, Rice [19]: 0; Plant response rating, Sedge, Umbrella [20]: 0
O=C(Nc1ccccc1F)C1C(=O)N(CC=CBr)CC1c1cccc(C(F)(F)F)c1 (stereo not drawn) [Compound 484]	0	0	0	40	50	90	0	0	0	0	0	0	0	0	0	0	0	50	0	0	Corn plant response rating [11]: 0; Plant response rating, Corn [11]: 0; Foxtail, Giant plant response rating [12]: 0; Plant response rating, Foxtail, Giant [12]: 40; Pigweed plant response rating [13]: 0; Plant response rating, Pigweed [13]: 0; Ragweed plant response rating [14]: 0; Plant response rating, Ragweed [14]: 0; Ryegrass, Italian plant response rating [15]: 0; Plant response rating, Ryegrass, Italian [15]: 0; Wheat plant response rating [16]: 0; Plant response rating, Wheat [16]: 0; Plant response rating, Barnyardgrass [17]: 0; Plant response rating, Ducksalad [18]: 0; Plant response rating, Rice [19]: 0; Plant response rating, Sedge, Umbrella [20]: 0
O=C(Nc1cccc(F)c1F)C1C(=O)N(CC=CBr)CC1c1cccc(C(F)(F)F)c1 (stereo not drawn) [Compound 486]	0	0	30	70	60	90	0	20	0	0	0	20	0	20	0	0	0	40	0	0	Corn plant response rating [11]: 0; Plant response rating, Corn [11]: 0; Foxtail, Giant plant response rating [12]: 0; Plant response rating, Foxtail, Giant [12]: 50; Pigweed plant response rating [13]: 0; Plant response rating, Pigweed [13]: 40; Ragweed plant response rating [14]: 0; Plant response rating, Ragweed [14]: 0; Ryegrass, Italian plant response rating [15]: 0; Plant response rating, Ryegrass, Italian [15]: 0; Wheat plant response rating [16]: 0; Plant response rating, Wheat [16]: 0; Plant response rating, Barnyardgrass [17]: 0; Plant response rating, Ducksalad [18]: 0; Plant response rating, Rice [19]: 0; Plant response rating, Sedge, Umbrella [20]: 0
